# Values of other authors as cited in patent US20080031932A1, “Transdermal atomoxetine formulations and associated methods” (Watson Laboratories, Inc., priority 2006, published 2008).
# Legend:
# [1] = target: norepinephrine reuptake transporter (Homo sapiens, UniProt P23975); conditions: compared to atomoxetine
# serotonin reuptake = serotonin reuptake (Homo sapiens, UniProt P31645)
# Chain of serotonin reuptake (P31645 whole entry): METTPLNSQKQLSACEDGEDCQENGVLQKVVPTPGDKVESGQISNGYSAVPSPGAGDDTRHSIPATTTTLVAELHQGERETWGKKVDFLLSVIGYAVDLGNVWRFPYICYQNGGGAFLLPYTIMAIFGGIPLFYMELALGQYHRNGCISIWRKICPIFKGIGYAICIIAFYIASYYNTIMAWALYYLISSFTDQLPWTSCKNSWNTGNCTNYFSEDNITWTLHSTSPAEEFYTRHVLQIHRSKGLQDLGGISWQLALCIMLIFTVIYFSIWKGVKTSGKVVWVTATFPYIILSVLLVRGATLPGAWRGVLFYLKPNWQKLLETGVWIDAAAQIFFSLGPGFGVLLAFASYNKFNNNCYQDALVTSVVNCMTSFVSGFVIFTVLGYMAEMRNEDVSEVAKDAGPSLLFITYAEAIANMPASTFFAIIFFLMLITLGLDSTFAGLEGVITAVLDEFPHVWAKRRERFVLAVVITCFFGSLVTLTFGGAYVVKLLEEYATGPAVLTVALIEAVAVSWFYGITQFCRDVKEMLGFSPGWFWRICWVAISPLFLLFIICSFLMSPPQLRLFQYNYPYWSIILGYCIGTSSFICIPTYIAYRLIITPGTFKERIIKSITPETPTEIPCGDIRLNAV
# Chain of norepinephrine reuptake transporter (P23975 whole entry): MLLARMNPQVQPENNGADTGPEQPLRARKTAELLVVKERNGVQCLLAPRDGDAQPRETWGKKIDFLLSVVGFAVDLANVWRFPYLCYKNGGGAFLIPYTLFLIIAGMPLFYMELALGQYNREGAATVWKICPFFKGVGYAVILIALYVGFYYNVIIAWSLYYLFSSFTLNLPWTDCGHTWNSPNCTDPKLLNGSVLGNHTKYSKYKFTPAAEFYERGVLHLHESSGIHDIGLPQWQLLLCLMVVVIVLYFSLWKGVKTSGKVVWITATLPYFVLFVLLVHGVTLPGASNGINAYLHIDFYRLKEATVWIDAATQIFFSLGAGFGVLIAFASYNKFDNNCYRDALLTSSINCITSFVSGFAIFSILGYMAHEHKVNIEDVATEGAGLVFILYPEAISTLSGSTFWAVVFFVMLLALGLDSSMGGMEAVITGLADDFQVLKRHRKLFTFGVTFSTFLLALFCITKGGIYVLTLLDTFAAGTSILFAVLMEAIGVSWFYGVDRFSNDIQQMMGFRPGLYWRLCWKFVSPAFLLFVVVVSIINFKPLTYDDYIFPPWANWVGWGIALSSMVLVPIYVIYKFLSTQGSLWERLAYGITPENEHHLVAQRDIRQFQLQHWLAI
SMILES,affinity to other receptor systems (other receptor systems),inhibitory activity to the norepinephrine reuptake transporter [1],plasma half-life (individuals having normal activity in the CYP2D6 pathway),half-life (individuals with reduced activity in the CYP2D6 pathway (poor metabolizers)),serotonin reuptake inhibition (serotonin reuptake)
"Cc1ccccc1OC(CCN)c1ccccc1 (stereo not drawn) [NDA, N-desmethylatomoxetine]",little affinity,less active,,,
"CNCCC(Oc1ccccc1C)c1ccccc1 (single isomer, unassigned; (-)) [atomoxetine, (−)-N-methyl-3-phenyl-3-(o-tolyloxy)-propylamine]",,,about 5 hours,about 24 hours,
"CNCCC(Oc1ccc(O)cc1C)c1ccccc1 (stereo not drawn) [Example 4HA, 4-hydroxyatomoxetine]",little affinity,,,,pharmacologically active serotonin reuptake inhibitor
